Test results: PMC11645656, “MRGPRX4 mediates phospho-drug associated pruritus in a humanized mouse model” (Science translational medicine, 2024)
Several values for one entry are separate records, joined by “and”; a condition that tells them apart may be missing. Equal values may be shown once. Read-outs that look alike come from different tables or passages of the source.

Legend:
HTLA cells = experiment: PRESTO-Tango β-arrestin recruitment assay, parental HTLA cells without MRGPRX4 (control, fig. S1); assay type: cell-based
From the text: Supplement NIHMS2038790-supplement-table.xlsx, sheet "fig. S1" | column: Concentration (M)

MRGPRX4 Y250A = biological target: T1, MRGPRX4 Y250A (Homo sapiens, UniProt Q96LA9, L83S/Y250A); experiment: Calcium mobilization assay (FLIPR), MRGPRX4 Y250A mutant; assay type: cell-based
T1 construct: expressed in transfected cells; host or cells: HEK293T, transient
T1 sequence (Q96LA9 whole entry L83S/Y250A): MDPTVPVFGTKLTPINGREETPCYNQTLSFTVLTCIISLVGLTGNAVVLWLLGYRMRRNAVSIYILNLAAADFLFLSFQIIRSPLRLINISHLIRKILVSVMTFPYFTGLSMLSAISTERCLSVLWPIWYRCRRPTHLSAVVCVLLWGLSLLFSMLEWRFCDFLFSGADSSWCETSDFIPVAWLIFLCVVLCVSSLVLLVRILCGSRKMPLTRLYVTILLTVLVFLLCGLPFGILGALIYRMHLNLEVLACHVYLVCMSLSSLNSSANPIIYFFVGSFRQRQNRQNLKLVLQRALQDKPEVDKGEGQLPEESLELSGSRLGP
From the text: Fig. 3. […] (A) Cryo-EM density map of MRGPRX4-Gq in complex with fospropofol. (B) The density map of fospropofol and R82 of MRGPRX4. (C and D) Key molecular interactions between fospropofol and the hydrophilic (C) and hydrophobic (D) part of the agonist binding pocket of MRGPRX4. Amino acid residues interacting with fospropofol are shown as sticks. Hydrogen bond is shown as cyan dashed lines. […] Data are from at least three independent experiments, each performed in triplicate, and reported as the mean ± SEM. (E) and (F) were collected from the same sets of experiments.
To generate murine Mrgprs expressing cells, HEK293T cells (ATCC) were seeded on poly-D-lysine coated 96 well plate at 25,000 cells per well one day prior to transfection. HEK293T cells were transiently co-transfected with the mammalian expression plasmids carrying cDNA encoding the murine Mrgpr genes and plasmid inserted with cDNA encoding murine α-subunit of the heterotrimeric G15 protein (Gα15) in triplicates using Lipofectamine LTX reagents (Thermo Scientific). To generate WT, S83L, and alanine mutant MRGPRX4-expressing cells, HEK293T cells were seeded on poly-D-lysine coated 384 well plate at 12,000 cells per well one day prior to transfection. […]

MRGPRX4 S83L (L83) = MRGPRX4 S83L (L83) (Homo sapiens, UniProt Q96LA9); experiment: Calcium mobilization assay (FLIPR), S83L MRGPRX4 transiently expressed in HEK293T cells; assay type: cell-based; set-up: expressed in transfected cells; host or cells: HEK293T, transient; conditions: for Calcium mobilization response (Fig. 4D dose-response): each cell one replicate; for EC50: Fig. 4E, unit not in the head, taken from Concentration (M) of the sheet and pEC50 [M] of Fig. 4E
MRGPRX4 S83L (L83), sequence (Q96LA9 whole entry, stated change not applied): as the sequence (Q96LA9 whole entry L83S/Y250A) above, with S83L, A250Y counted along it
From the text: Fig. 4. […] Hydrogen bond is shown as cyan dashed lines. […] Data are from three independent experiments, performed in triplicate. (E) pEC50 plots of various agonists toward S83- and L83-MRGPRX4 through calcium mobilization assay. […] Each data point represents an independent experiment, performed in triplicate. The extra sum-of-square F test was used to examine the difference in EC50 values. One-sided t-test was used for nateglinide. *p< 0.05, **p< 0.01 and ***p< 0.001. ns = no statistical significance. Both (D) and (E) are reported as the mean ± SEM. N.D.= no detectable response ≤ 100 μM.
HEK293 cells and MRGPRX4 stably expressed HEK293 cells were seeded in 100 μl culture media on 96-well plates at a density of 40,000 cells per well and incubated overnight. The next day, the media were replaced with a dye-loading solution from the FLIPR Calcium 5 assay kit (Molecular Devices), diluted in Hank's Balanced Salt Solution (HBSS) with 20 mM HEPES, pH 7.4. After 1 h of incubation at 37°C, cells were allowed to recover for 10 min in the dark at room temperature prior to performing intracellular calcium mobilization assay in a Flexstation-3 instrument with SoftMax®Pro 7.1 software (Molecular Devices). Serial concentrations of tested drugs were prepared in HBSS/HEPES solution at 3X concentration. […] Compounds were tested in triplicates and the signals were averaged. Responses were determined by subtracting the minimum signal (at the baseline before adding the drug) from the maximum signal (obtained after drug stimulation). Four-parameter logistic (4PL) curve fit was used to plot the dose-response curves. […] Both dose-response curve fitting and EC50s calculation are computed with GraphPad Prism software (version: 6.o or above).
To generate murine Mrgprs expressing cells, HEK293T cells (ATCC) were seeded on poly-D-lysine coated 96 well plate at 25,000 cells per well one day prior to transfection. HEK293T cells were transiently co-transfected with the mammalian expression plasmids carrying cDNA encoding the murine Mrgpr genes and plasmid inserted with cDNA encoding murine α-subunit of the heterotrimeric G15 protein (Gα15) in triplicates using Lipofectamine LTX reagents (Thermo Scientific). To generate WT, S83L, and alanine mutant MRGPRX4-expressing cells, HEK293T cells were seeded on poly-D-lysine coated 384 well plate at 12,000 cells per well one day prior to transfection. Mammalian expression plasmids pLX304 (vector from Addgene) carrying different MRGPRX4 coding sequences were transiently transfected into HEK293T cells in triplicates with Lipofectamine LTX reagents (Thermo Scientific). Intracellular calcium mobilization assays were performed after one day of transfection. Murine Mrgprs tested include Mrgpra1, Mrgpra2a, Mrgpra2b, Mrgpra3, Mrgpra4, Mrgpra6, Mrgpra9, Mrgpra10, Mrgpra11, Mrgpra12, Mrgpra14, Mrgprb5, Mrgprb6, Mrgprb10, Mrgprb11, and Mrgprc11. WT and mutant MRGPRX4 constructs tested include WT, S83L, R82A, R86A, R95A, W158A, Y250A, and Y254A.

[1] = test system: NP2-X4+ mice (MRGPRX4 in Mrgpra3+ NP2 sensory neurons); experiment: Itch behavioral study (scratching bouts after subcutaneous nape injection) in NP2-X4+ mice; assay type: in vivo, mouse; conditions: for Scratching / itch behavior, NP2-X4+ mice vs WT littermates: 50 μl 10 mM nape injection, 30 min; for Scratching bouts of individual animals: NP2-X4+, 30 min after injection of 50 μl 10 mM into the nape, each cell one mouse

## O=C1NC(c2ccccc2)(c2ccccc2)C(=O)N1COP(=O)(O)O [Fosphenytoin]
HTLA cells; concentration 3.91e-6 M
  PRESTO-Tango response (fig. S1), single replicate: 0.004928 and 0.004598 and 0.01112 and 0.01116 and 0.003197 and 0.004271
HTLA cells; concentration 7.81e-6 M
  PRESTO-Tango response (fig. S1), single replicate: 0.007499 and 0.005683 and 0.007727 and 0.01002 and 0.00431 and 0.008159
HTLA cells; concentration 1.56e-5 M
  PRESTO-Tango response (fig. S1), single replicate: 0.004669 and 0.01023 and 0.009474 and 0.01705 and 0.007507 and 0.01409
HTLA cells; concentration 3.13e-5 M
  PRESTO-Tango response (fig. S1), single replicate: 0.006626 and 0.01061 and 0.0114 and 0.01987 and 0.004604 and 0.008542
HTLA cells; concentration 6.25e-5 M
  PRESTO-Tango response (fig. S1), single replicate: 0.01361 and 0.01504 and 0.01581 and 0.04311 and 0.006432 and 0.0129
HTLA cells; concentration 0.00025 M
  PRESTO-Tango response (fig. S1), single replicate: 0.01688 and 0.03926 and 0.02383 and 0.08171 and 0.008888 and 0.02076
HTLA cells; concentration 0.0005 M
  PRESTO-Tango response (fig. S1), single replicate: 0.0416 and 0.04542 and 0.03124 and 0.09673 and 0.01269 and 0.03191
HTLA cells; concentration 0.001 M
  PRESTO-Tango response (fig. S1), single replicate: 0.01837 and 0.05513 and 0.03077 and 0.1069 and 0.01168 and 0.03953
HTLA cells; concentration 0.002 M
  PRESTO-Tango response (fig. S1), single replicate: 0.01971 and 0.05409 and 0.03051 and 0.1054 and 0.01079 and 0.03852
HTLA cells; concentration 0.004 M
  PRESTO-Tango response (fig. S1), single replicate: 0.01886 and 0.05018 and 0.02929 and 0.08185 and 0.01164 and 0.032
MRGPRX4 Y250A
  Calcium mobilization response at alanine mutant Y250A vs WT: disrupted calcium mobilization
MRGPRX4 S83L (L83); 5.08e-8 M
  Calcium mobilization response (Fig. 4D dose-response): 12.9092
MRGPRX4 S83L (L83); 1.52e-7 M
  Calcium mobilization response (Fig. 4D dose-response): 15.1222
MRGPRX4 S83L (L83); 4.57e-7 M
  Calcium mobilization response (Fig. 4D dose-response): 12.9092
MRGPRX4 S83L (L83); read-out: EC50s (each well represents individual experiment)
  EC50: 1.09e-05 M and 5.99e-05 M and 1.97e-05 M
[1]
  Scratching / itch behavior, NP2-X4+ mice vs WT littermates: significantly increased scratching behavior
  Scratching bouts of individual animals: 32 and 55 and 37 and 89 and 49 and 39 and 73 and 83 and 25 and 94

## CC(C)c1cccc(C(C)C)c1OCOP(=O)(O)O [Fospropofol]
HTLA cells; concentration 1.95e-8 M
  PRESTO-Tango response (fig. S1), single replicate: 0.00694 and 0.004644 and 0.006153 and 0.00965 and 0.002832 and 0.003328 and 0.008458 and 0.007173 and 0.001142
HTLA cells; concentration 3.91e-8 M
  PRESTO-Tango response (fig. S1), single replicate: 0.00458 and 0.005779 and 0.004441 and 0.006153 and 0.01503 and 0.00701 and 0.000445 and 0.01011 and 0.01094
HTLA cells; concentration 7.81e-8 M
  PRESTO-Tango response (fig. S1), single replicate: 0.003343 and 0.006009 and 0.009902 and 0.005737 and 0.003469 and 0.004602 and 0.006927 and 0.00283 and 0.006775
HTLA cells; concentration 1.56e-7 M
  PRESTO-Tango response (fig. S1), single replicate: 0.003508 and 0.005703 and 0.009009 and 0.008984 and 0.006514 and 0.007694 and 0.009731 and 0.002935 and 0.00804
HTLA cells; concentration 3.13e-7 M
  PRESTO-Tango response (fig. S1), single replicate: 0.002922 and 0.004925 and 0.007537 and 0.0115 and 0.004508 and 0.006726 and 0.004052 and 0.005477 and 0.00953
HTLA cells; concentration 6.25e-7 M
  PRESTO-Tango response (fig. S1), single replicate: 0.004976 and 0.01037 and 0.009311 and 0.01735 and 0.01013 and 0.008402 and 0.01193 and 0.01132 and 0.007015
HTLA cells; concentration 1.25e-6 M
  PRESTO-Tango response (fig. S1), single replicate: 0.005116 and 0.008433 and 0.01261 and 0.0248 and 0.006302 and 0.01317 and 0.01357 and 0.000979 and 0.02066
HTLA cells; concentration 2.5e-6 M
  PRESTO-Tango response (fig. S1), single replicate: 0.004708 and 0.01187 and 0.01433 and 0.0357 and 0.005924 and 0.01747 and 0.01767 and 0.01738 and 0.009944
HTLA cells; concentration 5e-6 M
  PRESTO-Tango response (fig. S1), single replicate: 0.006149 and 0.02356 and 0.0209 and 0.04204 and 0.009157 and 0.0186 and 0.01895 and 0.003902 and 0.03736
HTLA cells; concentration 1e-5 M
  PRESTO-Tango response (fig. S1), single replicate: 0.007859 and 0.01771 and 0.01368 and 0.04592 and 0.005971 and 0.02299 and 0.000906 and 0.03405 and 0.02211
HTLA cells; concentration 2e-5 M
  PRESTO-Tango response (fig. S1), single replicate: 0.005575 and 0.02041 and 0.01412 and 0.04838 and 0.01541 and 0.027 and 0.00299 and 0.03805 and 0.0244
MRGPRX4 Y250A
  Calcium mobilization response at alanine mutant Y250A vs WT: disrupted calcium mobilization
MRGPRX4 S83L (L83); 1.52e-8 M
  Calcium mobilization response (Fig. 4D dose-response): 30.9484
MRGPRX4 S83L (L83); 0.0001 M
  Calcium mobilization response (Fig. 4D dose-response): 92.0965
MRGPRX4 S83L (L83); EC50s (each well represents individual experiment)
  EC50: 1.79e-07 M and 1.3e-07 M and 1.88e-07 M
[1]
  Scratching / itch behavior, NP2-X4+ mice vs WT littermates: significantly increased scratching behavior
  Scratching bouts of individual animals: 79 (2×) and 60 and 28 and 56 and 5 and 40 and 132 and 49 and 4 and 42 and 59 and 43 and 52

## O=C1NC(=O)C(c2ccccc2)(c2ccccc2)N1 [Phenytoin]
HTLA cells; concentration 4.88281e-6 M
  PRESTO-Tango response (fig. S1), single replicate: 0.008545 and 0.005867 and 0.007953 and 0.006901 and 0.004547 and 0.009824
HTLA cells; concentration 9.76563e-6 M
  PRESTO-Tango response (fig. S1), single replicate: 0.00741 and 0.01006 and 0.006055 and 0.01246 and 0.001908 and 0.0161
HTLA cells; concentration 1.95313e-5 M
  PRESTO-Tango response (fig. S1), single replicate: 0.004145 and 0.01453 and 0.008851 and 0.01106 and 0.007187 and 0.01768
HTLA cells; concentration 3.90625e-5 M
  PRESTO-Tango response (fig. S1), single replicate: 0.005318 and 0.007104 and 0.005862 and 0.009351 and 0.00878 and 0.001453
HTLA cells; concentration 7.8125e-5 M
  PRESTO-Tango response (fig. S1), single replicate: 0.01242 and 0.005662 and 0.007299 and 0.009043 and 0.01323 and 0.004261
HTLA cells; concentration 0.0003125 M
  PRESTO-Tango response (fig. S1), single replicate: 0.006045 and 0.003571 and 0.004631 and 0.006824 and 0.00263 and 0.004138
HTLA cells; concentration 0.000625 M
  PRESTO-Tango response (fig. S1), single replicate: 0.006823 and 0.004668 and 0.00481 and 0.009762 and 0.00692 and 0.01249
HTLA cells; concentration 0.0025 M
  PRESTO-Tango response (fig. S1), single replicate: 0.006747 and 0.00542 and 0.005105 and 0.007273 and 0.002426 and 0.006102
HTLA cells; concentration 0.005 M
  PRESTO-Tango response (fig. S1), single replicate: 0.003966 and 0.00315 and 0.01104 and 0.009531 and 0.005922 and 0.01091
[1]
  Scratching / itch behavior, NP2-X4+ mice vs WT littermates: no differences in itch behavior were detected
  Scratching bouts of individual animals: 6 and 0 and 19 and 1 (2×) and 14 and 16 and 21 and 12 and 20
